Measurements: patent US11679107B2 (Eisai R&D Management Co., Ltd., priority 2018, dated 2023)
Where two headings read alike, the source gives them in different places.

Assays:
[1] = system: NCI-H1568 cells (high MCL1); assay: Cell proliferation and viability, CellTiter-Glo, 72 hours; assay type: cell-based; conditions: for GI50: geometric mean
Procedure, shortened: (§1)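 Cells grown in RPMI-1640 with 10% FBS (Panc 05.04 with added insulin, 15% FBS total) were exposed to an 11-point half-log dilution, typically 10 μM–100 pM, at 0.1% DMSO for 72 h at 37 °C. ATP content was read by CellTiter-Glo luminescence. Percent inhibition was set against a time-zero plate and DMSO vehicle wells, on a −100% (cidal) to 100% (uninhibited growth) scale.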

[2] = system: Panc 05.04 cells (SF3b K700E mutant); assay: as above; assay type: cell-based; conditions: for GI50: geometric mean
Procedure, shortened: as §1

[3] = system: Ad2 variant pre-mRNAs spliced in HeLa S3 nuclear extracts; assay: In vitro splicing assay (IVS), RT-qPCR of spliced product; assay type: biochemical; conditions: for IC50: geometric mean; for Ratio Ad2.1/2.2: ratio of IVS IC50 Ad2.1 to Ad2.2
Procedure, shortened: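 Ad2 variant pre-mRNA (2 ng) with FTZΔi control RNA in HeLa S3 nuclear extract (8 μg) was pre-incubated with compound or DMSO for 15 min at 30 °C. Splicing ran 90 min at 30 °C after adding 0.5 mM ATP, creatine phosphate and MgCl2. Spliced product was quantified by TaqMan RT-qPCR, normalized to DMSO, and curve-fitted.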

[4] = target: T1, SF3b complexes (Homo sapiens, UniProt O75533+Q7RTV0); assay: Scintillation proximity assay (SPA) with [3H]-labelled pladienolide probe; assay type: binding; conditions: SF3B1 (WT); geometric mean; read-out: SPA-ATS GMean IC50 (nM) SF3B1 (WT)
T1 construct: endogenous in cells; host or cells: Nuclear extracts; A HeLa S3 extract preparation is described for the in vitro splicing assay
Procedure, shortened: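 SF3b complexes captured from nuclear extracts on anti-SF3B1 antibody SPA beads; test compounds pre-incubated 30 min before 2.5 nM [3H]-pladienolide probe added, then 30 min incubation. Bound probe read by scintillation; values from non-linear regression of concentration–response curves.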

[5] = NCI-H1568, read-out: CTGlo-ATS GMean GI50 (nM) 72 h NCIH1568.1, NCIH1568.1 cells, 72 h
[6] = NCIH1568.1 cells, 72 h, −100% cidal, 0% static, 100% maximal growth
[7] = PANC0504.1 cells, 72 h, −100% cidal, 0% static, 100% maximal growth
[8] = Panc 05.04, read-out: CTGlo-ATS GMean GI50 (nM) 72 h PANC0504.1, PANC0504.1 cells, 72 h
[9] = Ad2.1 pre-mRNA substrate, read-out: qPCR-IVS-ATS GMean IC50 (nM) Ad2.1
[10] = Ad2.2 pre-mRNA substrate, read-out: qPCR-IVS-ATS GMean IC50 (nM) Ad2.2
[11] = 72 h, NCIH1568.1, -100% = cidal, 0% = static, 100% = uninhibited growth
[12] = 72 h, PANC0504.1, -100% = cidal, 0% = static, 100% = uninhibited growth
[13] = NCI-H1568, 72 h, read-out: CTGlo-ATS GMean GI50 (nM) 72 h NCIH1568.1, NCIH1568.1 cells, 72 h
[14] = Panc 05.04, 72 h, read-out: CTGlo-ATS GMean GI50 (nM) 72 h PANC0504.1, PANC0504.1 cells, 72 h
[15] = NCI-H1568, read-out: CTGlo-ATS GMean GI50 (nM) 72 h NCIH1568.1, 72 h, NCIH1568.1
[16] = Panc 05.04, read-out: CTGlo-ATS GMean GI50 (nM) 72 h PANC0504.1, 72 h, PANC0504.1

Compound | GI50 [1, 5] [nM] | CTGlo-ATS Mean MinResponse % 72 h NCIH1568.1 [1, 6] [%] | CTGlo-ATS Mean MinResponse % 72 h PANC0504.1 [2, 7] [%] | GI50 [2, 8] [nM] | IC50 [3, 9] [nM] | IC50 [3, 10] [nM] | IC50 [4] [nM] | CTGlo-ATS Mean MinResponse % 72 h NCIH1568.1 [1, 11] [%] | GI50 ([1]; NCI-H1568, 72 h, read-out: CTGlo-ATS GMean GI50 (nM) 72 h NCIH1568.1, 72 h, NCIH1568.1) [nM] | CTGlo-ATS Mean MinResponse % 72 h PANC0504.1 [2, 12] [%] | GI50 ([2]; Panc 05.04, 72 h, read-out: CTGlo-ATS GMean GI50 (nM) 72 h PANC0504.1, 72 h, PANC0504.1) [nM] | Ratio Ad2.1/2.2 [3] | GI50 [1, 13] [nM] | GI50 [2, 14] [nM] | GI50 [1, 15] [nM] | GI50 [2, 16] [nM]
CNC(=O)[C@H]1CN(c2cc(F)cc(/C=C(\C)[C@H]3OC(=O)C[C@H](O)CC[C@H](C)[C@@H](OC(=O)N4CCN(C)CC4)/C=C/[C@@H]3C)c2)CCO1 [Compound 78] | 2.5 | −74.454 | −93.916 | 7.33 | 24.3 | 13.8 | 1.76 | – | – | – | – | – | – | – | – | –
C/C(=C\c1cc(F)c2cn[nH]c2c1)[C@H]1OC(=O)C[C@H](O)CC[C@H](C)[C@@H](OC(=O)N2CCN(C)CC2)/C=C/[C@@H]1C [Compound 59] | 14.5 | −44.526 | −95.512 | 17.5 | 13600 | 46.1 | 2.75 | – | – | – | – | – | – | – | – | –
C/C(=C\c1cc(F)c2cnn(CC(=O)N3CCCC3)c2c1)[C@H]1OC(=O)C[C@H](O)CC[C@H](C)[C@@H](OC(=O)N2CCN(C)CC2)/C=C/[C@@H]1C [Compound 129] | 4.73 | −70.909 | −94.183 | 11.3 | 32 | 15.6 | 4.38 | – | – | – | – | – | – | – | – | –
C/C(=C\c1cc(F)cc(N2CCN(S(=O)(=O)c3ccc4ccn(C)c4c3)CC2)c1)[C@H]1OC(=O)C[C@H](O)CC[C@H](C)[C@@H](OC(=O)N2CCN(C)CC2)/C=C/[C@@H]1C [Compound 115] | 88.9 | −93.625 | −97.417 | 85.2 | 335 | 233 | 144 | – | – | – | – | – | – | – | – | –
C/C(=C\c1cc(F)cc(N(C)C2COC2)c1)[C@H]1OC(=O)C[C@H](O)CC[C@H](C)[C@@H](OC(=O)N2CCN(C)CC2)/C=C/[C@@H]1C [Compound 169] | 8.26 | −66.086 | −90.232 | 8.9 | 96.6 | 19.8 | 1.43 | – | – | – | – | – | – | – | – | –
C/C(=C\c1cccc(N(C)C)c1)[C@H]1OC(=O)C[C@H](O)CC[C@H](C)[C@@H](OC(=O)N2CCN(C)CC2)/C=C/[C@@H]1C [Compound 265] | – | – | – | – | > 25000 | 71.6 | 5.3 | −9.0 | 47.5 | 25.1 | 36.7 | 349.0 | – | – | – | –
C/C(=C\c1cc(F)cc(N2CCOC[C@H]2C)c1)[C@H]1OC(=O)C[C@H](O)CC[C@H](C)[C@@H](OC(=O)N2CCN(C)CC2)/C=C/[C@@H]1C [Compound 75] | 3.58 | −85.064 | −81.995 | 3.69 | 19 | 15.4 | 2.15 | – | – | – | – | – | – | – | – | –
C/C(=C\c1cc(F)cc(N2CCC[C@H]2CO)c1)[C@H]1OC(=O)C[C@H](O)CC[C@H](C)[C@@H](OC(=O)N2CCN(C)CC2)/C=C/[C@@H]1C [Compound 15] | – | −74.931 | −80.816 | – | 21.6 | 12.3 | 6.33 | – | – | – | – | – | 7.58 | 6.23 | – | –
C/C(=C\c1cccc(S(=O)(=O)N2CCN(C)CC2)c1)[C@H]1OC(=O)C[C@H](O)CC[C@H](C)[C@@H](OC(=O)N2CCN(C)CC2)/C=C/[C@@H]1C [Compound 211, [(2S,3S,4E,6R,7S,10R)-10-hydroxy-3,7-dimethyl-2-[(E)-1-[3-(4-methylpiperazin-1-yl)sulfonylphenyl]prop-1-en-2-yl]-12-oxo-1-oxacyclododec-4-en-6-yl] 4-methylpiperazine-1-carboxylate] | – | – | – | – | 651 | 83.4 | 11.9 | −52.358 | – | −91.820 | – | 7.806 | – | – | 60.6 | 47.6
C/C(=C\c1cc(F)cc(N2CCN(S(=O)(=O)c3cn(C)cn3)CC2)c1)[C@H]1OC(=O)C[C@H](O)CC[C@H](C)[C@@H](OC(=O)N2CCN(C)CC2)/C=C/[C@@H]1C [Compound 113] | 41.8 | −73.107 | −80.966 | 49 | – | – | 8.2 | – | – | – | – | – | – | – | – | –
C/C(=C\c1cc(F)cc(Cl)c1)[C@H]1OC(=O)C[C@H](O)CC[C@H](C)[C@@H](OC(=O)N2CCN(C)CC2)/C=C/[C@@H]1C [Compound 167] | 52.4 | −70.414 | −85.316 | 34.1 | – | – | 3.19 | – | – | – | – | – | – | – | – | –
C/C(=C\c1cc(F)cc(N2CCN(S(=O)(=O)c3cnn(C)c3)CC2)c1)[C@H]1OC(=O)C[C@H](O)CC[C@H](C)[C@@H](OC(=O)N2CCN(C)CC2)/C=C/[C@@H]1C [Compound 111] | – | −81.303 | −71.803 | – | – | – | 28 | – | – | – | – | – | 12.8 | 13.9 | – | –
C/C(=C\C1=CCCN(C(=O)OC(C)(C)C)C1)[C@H]1OC(=O)C[C@H](O)CC[C@H](C)[C@@H](OC(=O)N2CCN(C)CC2)/C=C/[C@@H]1C [Compound 219, [(2S,3S,4E,6R,7S,10R)-10-hydroxy-3,7-dimethyl-2-[(E)-1-[1-[(2-methylpropan-2-yl)oxycarbonyl]-3,6-dihydro-2H-pyridin-5-yl]prop-1-en-2-yl]-12-oxo-1-oxacyclododec-4-en-6-yl] 4-methylpiperazine-1-carboxylate] | – | – | – | – | – | – | 7.96 | −42.617 | – | −91.460 | – | – | – | – | 42.4 | 24.6
C/C(=C\c1cc(F)cc(N2CCN(S(=O)(=O)c3cccnc3)CC2)c1)[C@H]1OC(=O)C[C@H](O)CC[C@H](C)[C@@H](OC(=O)N2CCN(C)CC2)/C=C/[C@@H]1C [Compound 112] | 6.23 | −86.973 | −80.066 | 8.29 | – | – | 12.8 | – | – | – | – | – | – | – | – | –
